From patent US10174008B2, “Synthesis of cyclopropyl indoles and cyclohepta[B]indoles, pharmaceutical compositions containing them and method of using them” (WISCONSIN ALUMNI RESEARCH FOUNDATION, priority 2014, dated 2019)
Like-named read-outs stand apart in the source and are kept apart here.

Key:
[1] = tested on: protein secretion; assay: Non-selective inhibition at protein secretion; assay type: cell-based; conditions: Homo sapiens; HepG2 cells; read-out: IC50-C non-selective inhibition at protein secretion
Source text: (§1) PCSK9 expression is actively regulated at transcription levels. Statins are known to stimulate PCSK9 transcription which in turn curbs the efficacy of statins in LDL lowering in humans. […] A number of primary and secondary assays to measure PCSK9 secretion/modulation in response to putative active agents are known. Primary assays: PCSK9 Secretion HepG2 SP/CRC (% Inhibition/IC50); PCSK9 Secretion Cell Health HepG2 SP/CRC (% Inhibition/IC50); and Metabolic Luciferase Reporter Assay CRC (IC50). Secondary assays: PCSK9 ELISA HepG2 CRC (IC50); ApoA-1 ELISA HepG2 CRC (IC50), and Profiling Biochemical Activity—Kinase Panel SP/CRC (% Efficacy/IC50). All of these assays are publicly accessible via Lilly's Open Innovation Drug Discovery program (as well as other sources).

[2] = tested on: IL5; assay: IL5 inhibition; assay type: cell-based
[3] = tested on: IL17 secretion; assay: IL17 secretion from human PBMCs stimulated with IL23, anti-CD3 and anti-CD28; assay type: cell-based; conditions: PBMC
Source text: The present compounds are thus useful to treat autoimmune disorders such as (but not limited to) arthritis, multiple sclerosis, psoriasis, and inflammatory bowel disease. The IL-17 pathway plays an essential pathological role in many autoimmune diseases including arthritis, multiple sclerosis, psoriasis, and inflammatory bowel disease. IL-17 is produced and secreted by at least two classes of lymphocytes, δγ and CD4+ T cells (Th17). The orphan nuclear receptor RORg is required for the differentiation of Th17 cells where over-expression in human and rodent T cells induces transcripts found in Th17 cells encoding key cytokines for the IL23 receptor and chemokines for the CCR6 receptor. In addition to RORg, recent global analysis of transcription factors has highlighted the molecular complexity of the Th17 differentiation program.
Active compounds are identified by measuring their ability to inhibitor IL17 secretion from human peripheral blood mononuclear cells (PBMCs) following stimulation of memory T cells by IL23, anti-CD3, and anti-CD28. See M. Ciofani, et al (2012) “A validated regulatory network for Th17 cell specification.” Cell, 151:289-303.

[4] = Cytotoxicity (PCSK9 Secretion Cell Health HepG2); assay type: cell-based; conditions: human, HepG2 cells; read-out: IC50-B cytotoxicity
Source text: as §1

[5] = tested on: PCSK9 secretion; assay: PCSK9 secretion in HepG2 cells; assay type: cell-based; conditions: Homo sapiens
Source text: as §1

[6] = tested on: GLP-1 secretion; assay: GLP-1 secretion (ELISA); assay type: cell-based
Source text: Similarly, the present indole compounds also modify the activity of glucagon-like peptide 1 (GLP-1), which plays a critical role in hyperglycemia and diabetes in humans. Glucagon-like peptide 1 (GLP-1) is derived from transcription of the proglucagon gene followed by post-translational modifications of proglucagon to the following biologically active peptides: GLP-1 (7-37) and GLP-1 (7-36)-NH2. GLP-1 secretion by ileal L cells is dependent on the presence of nutrients in the lumen of the small intestine. GLP-1 is a potent anti-hyperglycemic hormone that induces glucose-dependent insulin secretion and suppresses glucagon secretion.
GLP-1 secretion is measured using an ELISA designed to detect the appropriate forms of GLP-1 secreted from these cells. See, for example, Gareth E. Kim and Patricia L. Brubaker (December 2006) “Glucagon-Like Peptide 1 Secretion by the L-Cell,” Diabetes: 55 (supplement 2).

[7] = HepG2 cells, read-out: IC50-A inhibition of PCSK9 secretion

| melting point [°C] | IC50 [1] [µM] | IC50 [2] [µM] | IC50 [3] [µM] | IC50 ([5]; HepG2, read-out: PCSK9, IC50) [µM] | IC50 [5, 7] [µM] | EC50 [6] [µM] | Structure (SMILES) | IC50 [4] [µM] |
| --- | --- | --- | --- | --- | --- | --- | --- | --- |
| 155 to 156 | > 50 | > 30 | 10 | 1.8 | 1.8 |  | COc1ccc(C2C[C@@H]2c2c(C)c3ccccc3n2S(=O)(=O)c2ccc(C)cc2)cc1 (stereo in doubt) [8a, 2-(2-(4-methoxyphenyl)cyclopropyl)-3-methyl-1-tosyl-1H-indole] | > 50 |
| 156 to 157 |  |  |  | 21 | 21 |  | Cc1ccc(S(=O)(=O)n2c([C@@H]3CC3c3ccccc3)c(C)c3ccccc32)cc1 (stereo in doubt) [8b, 3-methyl-2-(2-phenylcyclopropyl)-1-tosyl-1H-indole] |  |
| 57 to 58 |  |  |  |  |  | 7.3 | Cc1ccc(S(=O)(=O)n2c(C3C[C@]3(CO)c3ccccc3)c(C)c3ccccc32)cc1 (stereo in doubt) [8i, (2-(3-methyl-1-tosyl-1H-indol-2-yl)-1-phenylcyclopropyl)methanol] |  |
| 106 to 107 | > 50 | > 30 | 7.3 | 9.9 | 9.9 |  | Cc1ccc(S(=O)(=O)n2c([C@H]3C[C@H]3c3ccc4c(c3)OCO4)c(C)c3ccccc32)cc1 [8f, 2-(2-(benzo[d][1,3]dioxol-5-yl)cyclopropyl)-3-methyl-1-tosyl-1H-indole] | > 50 |
|  | > 50 |  |  | 0.7 | 0.7 |  | CCc1c(C2CC2c2ccc(OC)cc2)n(S(=O)(=O)c2ccc(C)cc2)c2ccccc12 (stereo not shown) [10g, 3-ethyl-2-(2-(4-methoxyphenyl)cyclopropyl)-1-tosyl-1H-indole] | > 50 |
| 75 to 76 |  |  |  |  |  | 28.4 | COc1ccc(C2C=CCCc3c2c2ccccc2n3S(=O)(=O)c2ccc(C)cc2)cc1 (stereo not shown) [compound 14, (Z)-10-(4-methoxyphenyl)-5-tosyl-5,6,7,10-tetrahydrocyclohepta[b]indole] |  |
